Source: patent US9564604B2, “Fused polycyclic aromatic compounds, organic semiconductor material and thin film including the same, and method for producing an organic semiconductor device” (Nippon Kayaku Kabushiki Kaisha, priority 2012, dated 2017)

Tests used:
[1] = Solubility measurement in chloroform (saturated solution); format: physicochemical; conditions: mass percent concentration of saturated chloroform solution
Experimental: Solubility was measured by using chloroform as solvent.

[2] = CV (cyclic voltammetry) measurement in dichloromethane; format: physicochemical; conditions: n-BuN4PF6 0.1 M, Pt electrodes, silver-silver chloride reference, 100 mV/sec
Experimental: CV measurement was conducted by using dichloromethane as solvent, tetrabutylammonium hexafluorophosphate (n-BuN4PF6, 0.1 M) as a supporting electrolyte, platinum wires as working electrodes and counter electrodes, and a silver-silver chloride electrodes as reference electrodes, and by sweeping the electric potential at a rate of 100 mV/sec. In all Compounds 101, 110, 112, 136, 201, 210, 212, 214, and 236, two pairs of oxidation-reduction waves were observed.

CCCCCCCCc1cc2c(=C(C#N)C#N)cc3c(cc(=C(C#N)C#N)c4cc(CCCCCCCC)sc43)c2s1 [Compound 110]
Solubility in chloroform [1]: 0.52 w/w % | first half-wave reduction potential [2]: 0.06 V | second half-wave reduction potential [2]: −0.28 V

CCCCCCCCCCCCc1cc2c(=C(C#N)C#N)cc3c(cc(=C(C#N)C#N)c4cc(CCCCCCCCCCCC)sc43)c2s1 [Compound 112]
Solubility in chloroform [1]: 0.22 w/w % | first half-wave reduction potential [2]: 0.06 V | second half-wave reduction potential [2]: −0.28 V

CC(C)[Si](c1cc2c(=C(C#N)C#N)cc3c(cc(=C(C#N)C#N)c4cc([Si](C(C)C)(C(C)C)C(C)C)sc43)c2s1)(C(C)C)C(C)C [Compound 136]
first half-wave reduction potential [2]: 0.06 V | second half-wave reduction potential [2]: −0.28 V

N#CC(C#N)=c1cc2c3ccsc3c(=C(C#N)C#N)cc2c2ccsc12 [Compound 201]
first half-wave reduction potential [2]: 0.06 V | second half-wave reduction potential [2]: −0.28 V

CCCCCCCCc1cc2c(s1)c(=C(C#N)C#N)cc1c3cc(CCCCCCCC)sc3c(=C(C#N)C#N)cc21 [Compound 210]
first half-wave reduction potential [2]: 0.06 V | second half-wave reduction potential [2]: −0.28 V

CCCCCCCCCCCCc1cc2c(s1)c(=C(C#N)C#N)cc1c3cc(CCCCCCCCCCCC)sc3c(=C(C#N)C#N)cc21 [Compound 212]
first half-wave reduction potential [2]: 0.06 V | second half-wave reduction potential [2]: −0.28 V

CCCCCCCCCCCCCCCCc1cc2c(s1)c(=C(C#N)C#N)cc1c3cc(CCCCCCCCCCCCCCCC)sc3c(=C(C#N)C#N)cc21 [Compound 214]
first half-wave reduction potential [2]: 0.06 V | second half-wave reduction potential [2]: −0.28 V
